We go through 24 compounds from patent US9216999B2, “Substituted pyrrolo[2,3-h][1,6]naphthyridines and compositions thereof as JAK inhibitors” (priority 2011, dated 2015).

Assay type in all cases: biochemical
What all share (conditions): ATP 100 μM

In one test the target is JAK1 (Homo sapiens (Human), UniProt P23458). Kind of test: Enzyme assay (Assay Example^a 1), JAK1.
For a further test, the target named is JAK2 (Homo sapiens (Human), UniProt O60674). Kind of test: Enzyme assay (Assay Example^a 1), JAK2.
A further test has as its target JAK3 (Homo sapiens (Human), UniProt P52333). Kind of test: Enzyme assay (Assay Example^a 1), JAK3.
Another test concerns the target Tyk2 (Homo sapiens (Human), UniProt P29597). Kind of test: Enzyme assay (Assay Example^a 1), Tyk2.

JAK3, sequence (P52333 whole entry): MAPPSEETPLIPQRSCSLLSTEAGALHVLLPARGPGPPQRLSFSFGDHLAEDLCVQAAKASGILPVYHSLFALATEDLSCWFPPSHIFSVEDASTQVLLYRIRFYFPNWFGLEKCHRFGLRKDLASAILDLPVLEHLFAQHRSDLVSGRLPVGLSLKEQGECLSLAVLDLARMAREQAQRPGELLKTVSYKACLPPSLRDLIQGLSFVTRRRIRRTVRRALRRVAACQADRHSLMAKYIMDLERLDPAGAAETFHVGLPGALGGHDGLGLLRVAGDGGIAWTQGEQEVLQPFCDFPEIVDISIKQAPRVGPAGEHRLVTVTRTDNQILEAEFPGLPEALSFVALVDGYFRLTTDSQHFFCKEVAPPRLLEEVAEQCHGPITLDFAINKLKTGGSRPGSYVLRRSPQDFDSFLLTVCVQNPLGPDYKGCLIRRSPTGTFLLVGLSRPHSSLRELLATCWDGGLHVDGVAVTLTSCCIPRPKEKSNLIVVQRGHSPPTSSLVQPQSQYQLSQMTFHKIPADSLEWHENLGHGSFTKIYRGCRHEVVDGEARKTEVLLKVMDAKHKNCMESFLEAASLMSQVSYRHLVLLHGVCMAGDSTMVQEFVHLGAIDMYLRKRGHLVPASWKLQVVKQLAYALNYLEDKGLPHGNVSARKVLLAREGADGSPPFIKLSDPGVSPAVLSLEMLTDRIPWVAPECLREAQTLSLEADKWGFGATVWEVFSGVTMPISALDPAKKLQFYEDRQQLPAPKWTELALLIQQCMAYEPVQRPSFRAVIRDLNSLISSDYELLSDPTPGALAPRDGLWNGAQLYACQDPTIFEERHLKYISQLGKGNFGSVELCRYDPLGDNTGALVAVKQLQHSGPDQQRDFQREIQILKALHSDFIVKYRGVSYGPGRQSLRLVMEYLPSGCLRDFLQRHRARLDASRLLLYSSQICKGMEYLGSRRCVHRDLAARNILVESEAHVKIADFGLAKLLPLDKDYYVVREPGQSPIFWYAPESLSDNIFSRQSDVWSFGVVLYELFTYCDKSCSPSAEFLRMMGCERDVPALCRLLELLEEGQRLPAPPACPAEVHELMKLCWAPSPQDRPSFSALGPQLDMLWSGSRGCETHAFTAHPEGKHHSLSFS
Tyk2, sequence (P29597 whole entry): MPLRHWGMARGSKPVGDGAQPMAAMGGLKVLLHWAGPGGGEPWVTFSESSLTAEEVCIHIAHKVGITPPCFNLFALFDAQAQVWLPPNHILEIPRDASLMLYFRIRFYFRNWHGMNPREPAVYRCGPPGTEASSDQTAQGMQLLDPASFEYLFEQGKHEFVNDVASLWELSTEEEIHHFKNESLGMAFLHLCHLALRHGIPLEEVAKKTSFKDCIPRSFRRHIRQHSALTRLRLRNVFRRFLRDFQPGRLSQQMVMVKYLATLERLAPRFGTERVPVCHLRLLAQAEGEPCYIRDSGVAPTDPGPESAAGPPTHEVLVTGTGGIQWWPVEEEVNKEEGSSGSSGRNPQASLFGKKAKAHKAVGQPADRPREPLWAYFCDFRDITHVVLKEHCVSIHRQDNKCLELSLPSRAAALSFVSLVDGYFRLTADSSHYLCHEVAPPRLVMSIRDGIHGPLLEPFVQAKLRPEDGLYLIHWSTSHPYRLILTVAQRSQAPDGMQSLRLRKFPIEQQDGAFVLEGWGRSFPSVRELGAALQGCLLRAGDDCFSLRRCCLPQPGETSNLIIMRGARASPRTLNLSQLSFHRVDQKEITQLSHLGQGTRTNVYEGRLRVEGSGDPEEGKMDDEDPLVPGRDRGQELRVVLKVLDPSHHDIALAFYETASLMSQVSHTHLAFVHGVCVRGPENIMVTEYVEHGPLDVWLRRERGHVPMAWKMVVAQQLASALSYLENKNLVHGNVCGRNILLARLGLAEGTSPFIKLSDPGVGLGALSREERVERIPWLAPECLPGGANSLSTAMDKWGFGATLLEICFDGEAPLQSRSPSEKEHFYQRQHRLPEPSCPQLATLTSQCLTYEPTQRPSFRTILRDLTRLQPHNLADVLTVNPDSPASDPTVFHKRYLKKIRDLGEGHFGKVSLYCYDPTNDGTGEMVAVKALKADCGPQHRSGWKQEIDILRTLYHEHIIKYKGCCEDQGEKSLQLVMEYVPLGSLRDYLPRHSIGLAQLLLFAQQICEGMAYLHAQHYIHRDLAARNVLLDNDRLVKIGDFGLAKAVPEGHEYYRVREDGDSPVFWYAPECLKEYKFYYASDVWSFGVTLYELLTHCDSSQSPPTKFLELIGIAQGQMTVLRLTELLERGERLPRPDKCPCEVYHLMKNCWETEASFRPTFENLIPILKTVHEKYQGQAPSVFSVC

One may read the IC50 as the point on the concentration scale where inhibition reaches its midpoint. Regarding `FC(F)(F)CN(CC1CC1)C[C@H]1CC[C@H](c2nnn3cnc4[nH]ccc4c23)CC1` [compound 415, N-{[trans-4-(7H-pyrrolo[3,2-e][1,2,3]triazolo[1,5-c]pyrimidin-1-yl)cyclohexyl]methyl}-N-(cyclopropylmethyl)-2,2,2-trifluoroethanamine], the IC50 on JAK1 is 0.03 µM; against JAK2 it was 0.095 µM; against JAK3, above 1 µM; on Tyk2, above 1 µM.
Consider `O=S(=O)(O)C[C@H]1CC[C@H](c2nnn3cnc4[nH]ccc4c23)CC1` [compound 416, [trans-4-(7H-Pyrrolo[3,2-e][1,2,3]triazolo[1,5-c]pyrimidin-1-yl)cyclohexyl]methanesulfonic acid], for which the IC50 against JAK1 is 0.029 µM; against JAK2 it was 0.047 µM; against JAK3, above 1 µM; against Tyk2 it was 0.68 µM.
In the same order, the values of `O=S(=O)(C[C@H]1CC[C@H](c2nnn3cnc4[nH]ccc4c23)CC1)NC1CC1` [compound 417, 1-[trans-4-(7H-Pyrrolo[3,2-e][1,2,3]triazolo[1,5-c]pyrimidin-1-yl)cyclohexyl]-N-cyclopropylmethanesulfonamide] are 0.0078 µM, 0.026 µM, 0.38 µM and 0.42 µM.
For `CN(C)S(=O)(=O)C[C@H]1CC[C@H](c2nnn3cnc4[nH]ccc4c23)CC1` [compound 418, 1-[trans-4-(7H-pyrrolo[3,2-e][1,2,3]triazolo[1,5-c]pyrimidin-1-yl)cyclohexyl]-N,N-dimethylmethanesulfonamide], the IC50 against JAK1 is 0.0043 µM; on JAK2, 0.0084 µM; against JAK3 it was 0.33 µM; at Tyk2, 0.17 µM.
In the same order, the values of `N#CCNS(=O)(=O)C[C@H]1CC[C@H](c2nnn3cnc4[nH]ccc4c23)CC1` [compound 419, 1-[trans-4-(7H-pyrrolo[3,2-e][1,2,3]triazolo[1,5-c]pyrimidin-1-yl)cyclohexyl]-N-(cyanomethyl)methanesulfonamide] are 0.0035 µM, 0.0061 µM, 0.069 µM and 0.27 µM.
In the same order, the values of `O=S(=O)(C[C@H]1CC[C@H](c2nnn3cnc4[nH]ccc4c23)CC1)NCC(F)(F)F` [compound 420, 1-[trans-4-(7H-pyrrolo[3,2-e][1,2,3]triazolo[1,5-c]pyrimidin-1-yl)cyclohexyl]-N-(2,2,2-trifluoroethyl)methanesulfonamide] are 0.0057 µM, 0.015 µM, 0.41 µM and 0.3 µM.
For `FC(F)(F)COC1CN(C[C@H]2CC[C@H](c3nnn4cnc5[nH]ccc5c34)CC2)C1` [compound 421, 1-(trans-4-{[3-(2,2,2-Trifluoroethoxy)azetidin-1-yl]methyl}cyclohexyl)-7H-pyrrolo[3,2-e][1,2,3]triazolo[1,5-c]pyrimidine] the same measures were 0.01 µM, 0.17 µM, above 1 µM and above 1 µM.
For `CC1(O)CN(C[C@H]2CC[C@H](c3nnn4cnc5[nH]ccc5c34)CC2)C1` [compound 422, 1-{[trans-4-(7H-pyrrolo[3,2-e][1,2,3]triazolo[1,5-c]pyrimidin-1-yl)cyclohexyl]methyl}-3-methylazetidin-3-ol], the IC50 against JAK1 was 0.0028 µM; against JAK2 it was 0.051 µM; on JAK3, above 1 µM; on Tyk2 it was 0.13 µM.
In the same order, the values of `CN(C)C1CN(C[C@H]2CC[C@H](c3nnn4cnc5[nH]ccc5c34)CC2)C1` [compound 423, 1-{[trans-4-(7H-pyrrolo[3,2-e][1,2,3]triazolo[1,5-c]pyrimidin-1-yl)cyclohexyl]methyl}-N,N-dimethylazetidin-3-amine] are 0.077 µM, 0.72 µM, above 1 µM and above 1 µM.
With `CCN(C)C1CN(C[C@H]2CC[C@H](c3nnn4cnc5[nH]ccc5c34)CC2)C1` [compound 424, 1-{[trans-4-(7H-pyrrolo[3,2-e][1,2,3]triazolo[1,5-c]pyrimidin-1-yl)cyclohexyl]methyl}-N-ethyl-N-methylazetidin-3-amine], the IC50 was 0.044 µM against JAK1, 0.48 µM against JAK2, above 1 µM against JAK3 and above 1 µM against Tyk2.
As to `OC1(C(F)(F)F)CN(C[C@H]2CC[C@H](c3nnn4cnc5[nH]ccc5c34)CC2)C1` [compound 425, 1-{[trans-4-(7H-Pyrrolo[3,2-e][1,2,3]triazolo[1,5-c]pyrimidin-1-yl)cyclohexyl]methyl}-3-(trifluoromethyl)azetidin-3-ol], the IC50 against JAK1 is 0.0025 µM; against JAK2, 0.022 µM; against JAK3, 0.082 µM; on Tyk2 it was 0.37 µM.
For the compound `O=C(NCC(F)(F)F)C1CN(C[C@H]2CC[C@H](c3nnn4cnc5[nH]ccc5c34)CC2)C1` [compound 426, 1-{[trans-4-(7H-Pyrrolo[3,2-e][1,2,3]triazolo[1,5-c]pyrimidin-1-yl)cyclohexyl]methyl}-N-(2,2,2-trifluoroethyl)azetidine-3-carboxamide], the IC50 came out at 0.011 µM against JAK1, 0.062 µM against JAK2, 0.87 µM against JAK3 and 0.58 µM against Tyk2.
In the same order, the values of `CS(=O)(=O)NC[C@H]1CC[C@H](c2nnn3cnc4[nH]ccc4c23)CC1` [compound 427, N-{[trans-4-(7H-Pyrrolo[3,2-e][1,2,3]triazolo[1,5-c]pyrimidin-1-yl)cyclohexyl]methyl}methanesulfonamide] are 0.00016 µM, 0.0012 µM, 0.03 µM and 0.016 µM.
With `CC(C)(C)OC(=O)N1CC(CC#N)(NC[C@H]2CC[C@H](c3nnn4cnc5[nH]ccc5c34)CC2)C1` [compound 428, tert-Butyl 3-({[trans-4-(7H-pyrrolo[3,2-e][1,2,3]triazolo[1,5-c]pyrimidin-1-yl)cyclohexyl]methyl}amino)-3-(cyanomethyl)azetidine-1-carboxylate], the IC50 against JAK1 is 0.19 µM; on JAK2 it was 0.75 µM; on JAK3 it was above 1 µM; on Tyk2, above 1 µM.
Regarding `O/N=C/[C@H]1CC[C@H](c2nnn3cnc4[nH]ccc4c23)CC1` [compound 429, 4-(7H-Pyrrolo[3,2-e][1,2,3]triazolo[1,5-c]pyrimidin-1-yl)cyclohexanecarbaldehyde oxime], the IC50 at JAK1 was 0.017 µM; at JAK2, 0.035 µM; at JAK3, 0.79 µM; against Tyk2, 0.52 µM.
In the same order, the values of `N#C[C@H]1CC[C@H](c2nnn3cnc4[nH]ccc4c23)CC1` [compound 430, trans-4-(7H-Pyrrolo[3,2-e][1,2,3]triazolo[1,5-c]pyrimidin-1-yl)cyclohexanecarbonitrile] are 0.0086 µM, 0.049 µM, above 1 µM and 0.41 µM.
In the same order, the values of `N#CC(C#N)=C[C@H]1CC[C@H](c2nnn3cnc4[nH]ccc4c23)CC1` [compound 431, 2-{[trans-4-(7H-Pyrrolo[3,2-e][1,2,3]triazolo[1,5-c]pyrimidin-1-yl)cyclohexyl]methylene}malononitrile] are 0.0048 µM, 0.013 µM, 0.29 µM and 0.24 µM.
In the same order, the values of `C=C1CCC(c2nnn3cnc4[nH]ccc4c23)CC1` [compound 433, 1-(4-Methylenecyclohexyl)-7H-pyrrolo[3,2-e][1,2,3]triazolo[1,5-c]pyrimidine] are 0.0081 µM, 0.027 µM, 0.71 µM and 0.12 µM.
Consider `N#CC=C1CCC(c2nnn3cnc4[nH]ccc4c23)CC1` (stereo not drawn) [compound 434, 2-[4-(7H-pyrrolo[3,2-e][1,2,3]triazolo[1,5-c]pyrimidin-1-yl)cyclohexylidene]acetonitrile], for which the IC50 against JAK1 came out at 0.0023 µM; against JAK2, 0.014 µM; at JAK3, 0.49 µM; against Tyk2, 0.034 µM.
In the same order, the values of `CCOC(=O)C=C1CCC(c2nnn3cnc4[nH]ccc4c23)CC1` (stereo not drawn) [compound 436, ethyl 2-[4-(7H-pyrrolo[3,2-e][1,2,3]triazolo[1,5-c]pyrimidin-1-yl)cyclohexylidene]acetate] are 0.035 µM, 0.17 µM, above 1 µM and above 1 µM.
For the compound `CC(C#N)=C1CCC(c2nnn3cnc4[nH]ccc4c23)CC1` (stereo not drawn) [compound 437, 2-[4-(7H-pyrrolo[3,2-e][1,2,3]triazolo[1,5-c]pyrimidin-1-yl)cyclohexylidene]propanenitrile], the IC50 was 0.02 µM on JAK1, 0.055 µM against JAK2, 0.57 µM against JAK3 and 0.45 µM on Tyk2.
In the same order, the values of `CCOC(=O)CC1CCC(c2nnn3cnc4[nH]ccc4c23)CC1` (stereo not drawn) [compound 438, Ethyl 2-[4-(7H-pyrrolo[3,2-e][1,2,3]triazolo[1,5-c]pyrimidin-1-yl)cyclohexyl]acetate] are 0.017 µM, 0.044 µM, 0.34 µM and 0.58 µM.
In the same order, the values of `N#C/C=C/[C@H]1CC[C@H](c2nnn3cnc4[nH]ccc4c23)CC1` [compound 440, (E)-3-[trans-4-(7H-Pyrrolo[3,2-e][1,2,3]triazolo[1,5-c]pyrimidin-1-yl)cyclohexyl]acrylonitrile] are 0.0053 µM, 0.031 µM, 0.54 µM and 0.14 µM.
For `N#CC1CC12CCC(c1nnn3cnc4[nH]ccc4c13)CC2` (stereo not drawn) [compound 444, 6-(7H-Pyrrolo[3,2-e][1,2,3]triazolo[1,5-c]pyrimidin-1-yl)spiro[2.5]octane-1-carbonitrile] the same measures were 0.0034 µM, 0.009 µM, 0.25 µM and 0.045 µM.
